Laboratory results: paper PMC3376652 (Journal of Medicinal Chemistry, 2012)
Where two headings read alike, the source gives them in different places. Marks after values point to notes of the source that are not given here.

Experiments:
[1] = system: 17b binding to monomeric core and full-length gp120; assay: SPR of 17b binding to small molecule:gp120 complexes; set-up: species or system HIV-1
[2] = system: recombinant HIV-1YU2 on Cf2Th-CCR5 cells; assay: Activation of viral infectivity in CD4-negative Cf2Th-CCR5 cells; type: cell-based; details: for Activation of Viral Infectivity: Cf2Th-CCR5 cells
[3] = system: amphotropic murine leukemia virus (A-MLV); type: cell-based; details: for IC50: Murine leukemia virus, read-out: A-MLV IC50
[4] = target: T1, gp120 from the YU2 strain (Human immunodeficiency virus type 1 group M subtype B, UniProt P35961); assay: Isothermal titration calorimetry of binding to full-length gp120; set-up: species or system HIV-1; details: for surface efficiency index (S.E.I.): calculated from KD and molecular polar surface area; for binding efficiency index (B.E.I.): calculated from KD and molecular weight; for change in heat capacity of binding: calculated from the temperature dependence of the binding enthalpies; for −TΔS: calculated from ΔG = ΔH – TΔS
wild-type HIV-1YU2 virus [5] = type: cell-based; details: for IC50: read-out: HIV-1, YU-2 IC50, Table 2, Cf2Th-CD4/CCR5 cells, mean ± SD
Cf2Th-CD4-CCR5 cells = assay: Luminescent cell-based viability assay; set-up: species or system canine; details: 1 to 100 μM, 48 hours
[6] = system: 42 HIV-1 clade B and C isolates; assay: Viral breadth: neutralization of HIV-1 Env-pseudoviruses in TZM-bl cells; type: cell-based; details: 42 HIV-1 strains (clades B and C); for neutralization breadth among the viral isolates tested: IC50 < 100 μM
S375Wgp120 YU2 virus = assay: Viral inhibition of the Phe43 cavity filling mutant virus; type: cell-based, HIV-1
[7] = target: T1, gp120 from the YU2 strain; details: ITC, 25 °C, ref Schon et al.[49] and Madani et al.[44], cited from earlier work
[8] = system: recombinant HIV-1YU2 on Cf2Th-CCR5 cells; details: relative to 1, ref Schon et al.[49] and Madani et al.[44]; cited from earlier work
wild-type HIV-1YU2 virus [9] = details: read-out: HIV-1, YU-2 IC50; Cf2Th-CD4/CCR5 cells, 10,000 RT units; ref Schon et al.[49] and Madani et al.[44]; cited from earlier work
[10] = Table 2, calculated from KD, 25 °C

SMILES	effect on binding of 17b to gp120 [1]	entry enhancement of YU2 viruses into CD4-negative, CCR5-expressing cells (in words) [2]	Activation of Viral Infectivity ([2]; Table 2, relative to 4)	inhibition of entry of A-MLV control virus (specificity, in words) [3]	ΔH ([4]; Table 2, ITC, 25 °C) [kcal/mol]	ΔG [4, 10] [kcal/mol]	percent of isolates with IC50 < 10 μM [6] [%]	change in heat capacity of binding [4]	ΔG [7]	ΔH [7]	Activation of Viral Infectivity [8]	other results
N[C@H]1Cc2ccccc2[C@@H]1NC(=O)C(=O)Nc1ccc(Cl)c(F)c1 [(+)-6, N^1-(4-chloro-3-fluorophenyl)-N^2-[(1S,2S)-2-amino-2,3-dihydro-1H-inden-1-yl]-oxalamide]	enhance binding of 17b to both the monomeric core and full-length gp120	enhanced viral entry in CD4-negative cells at levels comparable to those previously measured for 1–4	1.4 ± 0.5 (relative to 4)	inhibiting entry of the A-MLV control virus with a similar IC50 value	-15.4	-7.9						
O=C(Nc1ccc(Cl)c(F)c1)C(=O)N[C@H]1c2ccccc2C[C@H]1O [(+)-9, N^1-(4-chloro-3-fluorophenyl)-N^2-[(1S,2R)-2-hydroxy-2,3-dihydro-1H-inden-1-yl]oxalamide]												inhibition of viral entry (in words, data not shown) (wild-type HIV-1YU2 virus [5]): weak inhibition of viral entry
N=C(N)N[C@H]1Cc2ccccc2[C@@H]1NC(=O)C(=O)Nc1ccc(Cl)c(F)c1.O=CO [(+)-12, N^1-(4-chloro-3-fluorophenyl)-N^2-[(1S,2S)-2-guanidino-2,3-dihydro-1H-inden-1-yl]-oxalamide formate]	enhance binding of 17b to both the monomeric core and full-length gp120	no appreciable entry enhancement	0.1 ± 0.0 (19)^j (relative to 4)	neither compound was found to inhibit entry of A-MLV	-14.9	-9.0	57	−398 ± 5 cal/(K × mol)				in vitro cytotoxicity, inhibition of cell growth (Cf2Th-CD4-CCR5 cells): did not demonstrate measurable inhibition of cell growth; neutralization breadth among the viral isolates tested [6]: 100%; IC50 [3]: > 100 µM; surface efficiency index (S.E.I.) [4]: 6.4; binding efficiency index (B.E.I.) [4]: 16.8; IC50 (wild-type HIV-1YU2 virus [5]): 20 µM; sensitivity of YU2 S375Wgp120 virus to compound (S375Wgp120 YU2 virus): completely resistant
N[C@@H]1Cc2ccccc2[C@H]1NC(=O)C(=O)Nc1ccc(Cl)c(F)c1 [(−)-6]	enhance binding of 17b to both the monomeric core and full-length gp120	enhanced viral entry in CD4-negative cells at levels comparable to those previously measured for 1–4	1.0 ± 0.3 (relative to 4)	inhibiting entry of the A-MLV control virus with a similar IC50 value	-19.5	-8.1						Kd ([4]; KD, Table 2, ITC, 25 °C, PBS pH 7.4, 2% DMSO): 1.2 µM; −TΔS ([4]; Table 2): +11.4 kcal/mol
N=C(N)N[C@@H]1Cc2ccccc2[C@H]1NC(=O)C(=O)Nc1ccc(Cl)c(F)c1.O=CO [(−)-12]	enhance binding of 17b to both the monomeric core and full-length gp120	no appreciable entry enhancement	0.0 ± 0.0 (4)^j (relative to 4)	neither compound was found to inhibit entry of A-MLV	-19.4	-9.0	52	−817 ± 15 cal/(K × mol)				neutralization breadth among the viral isolates tested [6]: 100%; IC50 [3]: > 100 µM; −TΔS ([4]; Table 2): +10.4 kcal/mol; surface efficiency index (S.E.I.) [4]: 6.4; binding efficiency index (B.E.I.) [4]: 16.8; IC50 (wild-type HIV-1YU2 virus [5]): 20 µM; sensitivity of YU2 S375Wgp120 virus to compound (S375Wgp120 YU2 virus): completely resistant
CC1(C)CC(NC(=O)C(=O)Nc2ccc(Cl)cc2)CC(C)(C)N1 [Compound 1]							12		–7.4 kcal/mol	–24.5 kcal/mol	1.0	−TΔS ([7]; listed as NBD-556 (1)): +17.1 kcal/mol; IC50 (wild-type HIV-1YU2 virus [9]): > 100 µM
CC1(C)CC(NC(=O)C(=O)Nc2ccc(Br)cc2)CC(C)(C)N1 [Compound 2]									–7.7 kcal/mol	–22.8 kcal/mol	0.8 (relative to 1)	−TΔS ([7]; listed as NBD-557 (2)): +15.1 kcal/mol; IC50 (wild-type HIV-1YU2 virus [9]): > 100 µM
CC1(C)CC(NC(=O)C(=O)Nc2ccc(Cl)c(F)c2)CC(C)(C)N1 [Compound 3]									–8.3 kcal/mol	–20.8 kcal/mol	1.9 (relative to 1)	−TΔS ([7]; listed as JRC-I-191 (3)): +12.5 kcal/mol
CN1C(C)(C)CC(NC(=O)C(=O)Nc2ccc(Cl)c(F)c2)CC1(C)C [Compound 4]	enhance binding of 17b to both the monomeric core and full-length gp120							−738 ± 36 cal/(K × mol)				Activation of Viral Infectivity ([2]; Table 1, relative to 3): 2.1 (relative to 3)^i; ΔH ([4]; Table 1, ITC, 25 °C): –19.7 kcal/mol; ΔG ([4]; Table 1, calculated from Kd, 25 °C): –8.8 kcal/mol; −TΔS ([4]; Table 1): +10.9 kcal/mol
